Results on 64 compounds are retold here after patent US9567339B2, “Primary carboxamides as BTK inhibitors” (AbbVie Inc., priority 2013, dated 2017).

BTK, recombinant human catalytic domain (aa 393-659), sequence (Q06187 393-659): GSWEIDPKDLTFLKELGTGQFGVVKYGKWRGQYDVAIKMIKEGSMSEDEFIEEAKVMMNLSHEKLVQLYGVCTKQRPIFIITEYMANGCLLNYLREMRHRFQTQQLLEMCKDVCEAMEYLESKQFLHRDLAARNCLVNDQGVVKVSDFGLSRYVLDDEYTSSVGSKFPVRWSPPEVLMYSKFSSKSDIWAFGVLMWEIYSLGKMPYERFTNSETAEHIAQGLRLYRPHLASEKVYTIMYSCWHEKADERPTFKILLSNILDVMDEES

The first assay has as its target BTK, recombinant human catalytic domain (aa 393-659) (Homo sapiens (Human), UniProt Q06187). Kind of assay: In vitro BTK kinase activity measured by time-resolved fluorescence resonance energy transfer (trFRET). The class given is biochemical. The following applies: read-out: Btk IC50.
`C=CC(=O)N1CC(N(C)c2ccc(C(N)=O)c3[nH]c(C4(O)COC4)cc23)C1` [E.9.1.1]: the IC50 fell in the range of 100 to 1000 nM. Regarding `C=CC(=O)Nc1cc(-c2ccc(C(N)=O)c3[nH]ccc23)ccc1F` [E.1.23], the IC50 is < 100 nM. The same measure, in the same setting: then `C=CC(=O)N1CC(N(C)c2ccc(C(N)=O)c3[nH]c(-c4ccc5c(c4)NCCO5)cc23)C1` [E.9.15], with < 100 nM; and `Cc1c(NC(=O)/C=C/C(N)=O)cccc1-c1ccc(C(N)=O)c2[nH]c(C3=CCN(S(C)(=O)=O)CC3)cc12` [D.7.25], with < 100 nM.

As to `Cn1cc(-c2cc3c(N4CCC[C@@H](NC(=O)c5ccc(C(C)(C)C)cc5)C4)ccc(C(N)=O)c3[nH]2)cn1` [O.1.19*], the IC50 is < 100 nM. On to `C=CC(=O)N1CC(N(C)c2ccc(C(N)=O)c3[nH]c(-c4ccc5c(c4)COCC5)cc23)C1` [E.9.3], for which the IC50 is < 100 nM.

For the compound `C=CC(=O)N1CCC[C@H](c2cnc(C(N)=O)c3sc(-c4cnn(C)c4)nc23)C1` [E.9.36], the IC50 was < 100 nM. As to `C=CC(=O)N[C@@H]1CCCN(c2ccc(C(N)=O)c3[nH]c(C4=CCN(S(C)(=O)=O)CC4)cc23)C1` [E.1.11*], the IC50 was < 100 nM. For the compound `Cc1c(NC(=O)COc2ccc(C#N)cc2)cccc1-c1ccc(C(N)=O)c2[nH]c(C3=CCN(S(C)(=O)=O)CC3)cc12` [D.7.13], the IC50 is < 100 nM. On to `NC(=O)c1ccc(N2CCC[C@@H](n3cnc4ccc(F)cc4c3=O)C2)c2cc(-c3ccc(F)cc3)[nH]c12` [O.1.15*], for which the IC50 was in the range of 1000 to 10000 nM. In the case of `CCC(=O)N1CC[C@@H](c2ccc(C(N)=O)c3[nH]c(C)cc23)C1` [E.10.2], the IC50 is 100 to 1000 nM.

Turning to `Cc1c(NC(=O)C2=CCCCC2)cccc1-c1ccc(C(N)=O)c2[nH]c(C3=CCN(S(C)(=O)=O)CC3)cc12` [D.7.19], the IC50 was < 100 nM. As to `C=CC(=O)N1CCC[C@@H](c2ccc(C(N)=O)c3[nH]c(-c4cnn(C)c4)cc23)C1` [Example 4.1], the IC50 is < 100 nM. On to `Cc1ccc(-c2cc3c(Cc4c(Cl)cccc4Cl)ccc(C(N)=O)c3[nH]2)cc1` [U.1.1], for which the IC50 was 1000 to 10000 nM. For the compound `C=CC(=O)Nc1cc(-c2ccc(C(N)=O)c3[nH]ccc23)ccc1OCc1ccccc1` [E.1.12], the IC50 was 1000 to 10000 nM. `Cc1c(NC(=O)COc2ccccn2)cccc1-c1ccc(C(N)=O)c2[nH]c(C3=CCN(S(C)(=O)=O)CC3)cc12` [D.7.24]: the IC50 is < 100 nM. In the case of `NC(=O)c1ccc(N2CCC[C@@H](NC(=O)Nc3nccs3)C2)c2cc[nH]c12` [O.1.7*], the IC50 is 1000 to 10000 nM.

In the case of `Cc1c(NC(=O)C(F)(F)Cl)cccc1-c1ccc(C(N)=O)c2[nH]c(C3=CCN(S(C)(=O)=O)CC3)cc12` [D.7.7], the IC50 is < 100 nM. Consider `Cc1c(NC(=O)CC(C)C)cccc1-c1ccc(C(N)=O)c2[nH]c(C3=CCN(S(C)(=O)=O)CC3)cc12` [D.7.35], for which the IC50 was < 100 nM. `C=CC(=O)Nc1cc(-c2ccc(C(N)=O)c3[nH]ccc23)ccn1` [E.1.3]: the IC50 is < 100 nM. Regarding `Cc1c(NC(=O)C(C)Cl)cccc1-c1ccc(C(N)=O)c2[nH]c(C3=CCN(S(C)(=O)=O)CC3)cc12` (stereo not shown) [D.7.8], the IC50 is < 100 nM. With `Cc1c(NC(=O)/C=C/CNC2CC2)cccc1-c1ccc(C(N)=O)c2[nH]ccc12` [J.1.4], the IC50 fell in the range of 100 to 1000 nM. Take `C=CC(=O)Nc1ccc(Cl)c(-c2ccc(C(N)=O)c3[nH]ccc23)c1` [E.1.24]: the IC50 is < 100 nM.

Turning to `Cc1nc(C(=O)NC2CCCN(c3ccc(C(N)=O)c4[nH]c(C5=CCN(S(C)(=O)=O)CC5)cc34)C2)co1` (stereo not shown) [O.1.5*], the IC50 was < 100 nM. On to `C=CC(=O)N1CC(N(C)c2ccc(C(N)=O)c3[nH]c(C4CCS(=O)(=O)CC4)cc23)C1` [E.9.19], for which the concentration for half-maximal inhibition (IC50) was < 100 nM.

For the compound `Cc1c(NC(=O)CC#N)cccc1-c1ccc(C(N)=O)c2[nH]c(C3=CCN(S(C)(=O)=O)CC3)cc12` [D.7.4], the IC50 is < 100 nM.

Still in this assay, the particulars now being: trFRET, 0.001 mM ATP, biotin-TYR1 peptide substrate; read-out: Btk IC50.
As for `CC#CC(=O)Nc1c[nH]c2c(C(N)=O)ccc(-c3cccc(NC(=O)c4nccs4)c3C)c12` [D.3.5], the IC50 lay within 1000 to 10000 nM.

In the case of `Cc1c(-c2ccc(C(N)=O)c3[nH]c(-c4cnn(C)c4)cc23)cccc1-n1cnc2ccccc2c1=O` [A.10.1], the IC50 is < 100 nM. Consider `Cc1ccc(-c2cc3c(-c4ccsc4)ccc(C(N)=O)c3[nH]2)cc1` [A.8.10], for which the IC50 fell in the range of 100 to 1000 nM.

For `Cc1c(-c2ccc(C(N)=O)c3[nH]c(-c4cnn(C[C@@H](O)CO)c4)cc23)cccc1-n1cnc2ccccc2c1=O` [K.1], the IC50 was < 100 nM. Regarding `C=CC(=O)Nc1ccccc1-c1ccc(C(N)=O)c2[nH]c(C3=CCN(S(C)(=O)=O)CC3)cc12` [A.4.3], the IC50 was < 100 nM. In the case of `C=CC(=O)Nc1cccc(-c2ccc(C(N)=O)c3[nH]c(-c4cccnc4F)cc23)c1C` [A.1.17], the IC50 is < 100 nM.

With `C=CC(=O)Nc1cccc(-c2ccc(C(N)=O)c3[nH]c(-c4ccc(C(N)=O)cc4)cc23)c1C` [A.1.45], the IC50 was < 100 nM.

As to `C/C(O)=C(/C#N)C(=O)Nc1cccc(-c2ccc(C(N)=O)c3[nH]ccc23)c1` [Example 7, (E)-4-(3-(2-Cyano-3-hydroxybut-2-enamido)phenyl)-1H -indole-7-carboxamide], the IC50 lay within 1000 to 10000 nM. Take `Cc1c(-c2ccc(C(N)=O)c3[nH]c(C4=CCOCC4)cc23)cccc1-n1cnc2ccc(F)cc2c1=O` [A.11.2]: the IC50 is < 100 nM. For `CNc1cccc(-c2ccc(C(N)=O)c3[nH]ccc23)c1` [A.6.2], the IC50 was in the range of 1000 to 10000 nM. For `C=CC(=O)Nc1cccc(-c2ccc(C(N)=O)c3[nH]c(-c4ccccc4F)cc23)c1C` [A.1.29], the IC50 was < 100 nM. Take `C/C=C/C(=O)NCc1ccccc1-c1cc2c(-c3cccc(NC(=O)c4nccs4)c3C)ccc(C(N)=O)c2[nH]1` [D.1.9]: the IC50 lay within 1000 to 10000 nM.

Regarding `C=CC(=O)Nc1cccc(-c2ccc(C(N)=O)c3[nH]c(-c4ccc(F)nc4)cc23)c1C` [A.1.16], the IC50 was < 100 nM.

On to `C=CC(=O)Nc1cccc(-c2ccc(C(N)=O)c3[nH]ccc23)c1` [A.5.2], for which the IC50 lay within 100 to 1000 nM. For `Cc1c(NC(=O)c2nccs2)cccc1-c1ccc(C(N)=O)c2[nH]c(-c3cccnc3)cc12` [A.7.8], the IC50 was < 100 nM.

`Cc1oncc1C(=O)Nc1cccc(-c2ccc(C(N)=O)c3[nH]ccc23)c1` [E.2.1, N-(3-(7-carbamoyl-1H-indol-4-yl)phenyl)-5-methylisoxazole-4-carboxamide]: the IC50 was 1000 to 10000 nM. For `CS(=O)(=O)N1CC=C(c2cc3c(-c4ccccc4N)ccc(C(N)=O)c3[nH]2)CC1` [A.4.2, 4-(2-aminophenyl)-2-(1-(methylsulfonyl)-1,2,3,6-tetrahydropyridin-4-yl)-1H-indole-7-carboxamide], the IC50 is < 100 nM. Consider `C=CC(=O)Nc1cccc(-c2ccc(C(N)=O)c3[nH]c(-c4ccc(C)nc4)cc23)c1C` [A.1.24], for which the IC50 is < 100 nM. `C=CC(=O)Nc1cccc(-c2ccc(C(N)=O)c3[nH]c(CC)cc23)c1` [Example 20, 4-(3-Acrylamidophenyl)-2-ethyl-1H-indole-7-carboxamide]: the IC50 was < 100 nM. With `Cc1c(-c2ccc(C(N)=O)c3[nH]c(-c4cnn(CC(C)(C)O)c4)cc23)cccc1-n1cnc2ccc(F)cc2c1=O` [A.14.1], the IC50 is < 100 nM. `C=CC(=O)Nc1cccc(-c2ccc(C(N)=O)c3[nH]c(-c4cnn(C(C)C)c4)cc23)c1C` [A.1.4]: the IC50 is < 100 nM.

Turning to `Cc1c(NC(=O)c2cc3c(s2)CCCC3)cccc1-c1ccc(C(N)=O)c2[nH]c(-c3ccc(F)cc3)cc12` [A.9.7], the IC50 was in the range of 1000 to 10000 nM. On the same count and under the same terms, then `C=CC(=O)Nc1cccc(-c2ccc(C(N)=O)c3[nH]c(-c4ccc(C#N)cc4)cc23)c1C` [A.1.42], with < 100 nM; and `C=CC(=O)N1CCCC(c2ccc(C(N)=O)c3[nH]c(-c4cnn(C)c4)cc23)C1` (stereo not shown) [Example 26, 4-(1-Acryloylpiperidin 3-yl)-2-(1-methyl-1H-pyrazol-4-yl)-1H-indole-7-carboxamide], with < 100 nM; and `CS(=O)(=O)N1CC=C(c2cc3c(N4CCC[C@@H](N5CCc6ccccc6C5=O)C4)ccc(C(N)=O)c3[nH]2)CC1` [Example 13, (R)-2-(1-(Methylsulfonyl)-1,2,3,6-tetrahydropyridin-4-yl)-4-(3-(1-oxo-3,4-dihydroisoquinolin-2(1H)-yl)piperidin-1-yl)-1H-indole-7-carboxamide], with < 100 nM. In the case of `C=CC(=O)Nc1cccc(-c2ccc(C(N)=O)c3[nH]c(-c4cccc(C(=O)OC)c4)cc23)c1C` [A.1.19], the IC50 was < 100 nM. Consider `Cc1c(NC(=O)c2nccs2)cccc1-c1ccc(C(N)=O)c2[nH]cc(C)c12` [Example 3, N-(3-(7-carbamoyl-3-methyl-1H-indol-4-yl)-2-methylphenyl)thiazole-2-carboxamide], for which the IC50 lay within 100 to 1000 nM. Take `CC(=O)N1CCC(c2cc3c(-c4cccc(NC(=O)c5ccc(C6CC6)cc5)c4C)ccc(C(N)=O)c3[nH]2)CC1` [D.5.1]: the IC50 was in the range of 100 to 1000 nM. The same measure, in the same setting: then `C=CC(=O)Nc1cccc(-c2ccc(C(N)=O)c3[nH]c(-c4cccc(NC(C)=O)c4)cc23)c1C` [A.1.15], with < 100 nM; and `C=CC(=O)Nc1cccc(-c2ccc(C(N)=O)c3[nH]c(-c4cccc(OC)c4)cc23)c1C` [A.1.22], with < 100 nM.

Turning to `Cc1ccc(-c2cc3c(-c4cccnc4)ccc(C(N)=O)c3[nH]2)cc1` [A.8.3], the IC50 lay within 100 to 1000 nM. Take `CN1CCC=C(C(=O)Nc2cccc(-c3ccc(C(N)=O)c4[nH]ccc34)c2)C1` [E.2.2]: the IC50 fell in the range of 1000 to 10000 nM. With `Cc1ccc(-c2cc3c(-c4ccncc4)ccc(C(N)=O)c3[nH]2)cc1` [A.8.4], the IC50 was 100 to 1000 nM. Regarding `Cc1c(NC(=O)/C=C/c2cccnc2)cccc1-c1ccc(C(N)=O)c2[nH]ccc12` [D.8.4], the IC50 was 100 to 1000 nM. On the same count and under the same terms, with `Cc1c(-c2ccc(C(N)=O)c3[nH]c(-c4cnn(C)c4)cc23)cccc1-n1cnc2ccc(F)cc2c1=O` [A.10.2] the figure was < 100 nM; with `CC#CC(=O)NCc1ccccc1-c1cc2c(-c3cccc(NC(=O)c4nccs4)c3C)ccc(C(N)=O)c2[nH]1` [D.1.1], 1000 to 10000 nM; with `C=CC(=O)Nc1cccc(-c2ccc(C(N)=O)c3[nH]c(-c4cnn(CC)c4)cc23)c1C` [A.1.6], < 100 nM. In the case of `C=CC(=O)Nc1cccc(-c2ccc(C(N)=O)c3[nH]c(-c4cccc(C(=O)N5CCN(C)CC5)c4)cc23)c1C` [A.1.31], the IC50 is < 100 nM.
